In patent US10865191B2, “Heterocyclic compounds useful as modulators of TNF alpha” (BRISTOL-MYERS SQUIBB COMPANY, priority 2015, dated 2020):
Like-named read-outs stand apart in the source and are kept apart here.

Target: TNFα (Homo sapiens, UniProt P01375)
Assay: TNF induced HEK-Blue assay (NF-kB-driven secreted alkaline phosphatase reporter)
Format: cell-based
Details: TNFα 0.5 ng/mL, HEK-Blue-CD40L cells, 18 h
Summary of the method: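 HEK-Blue-CD40L cells (NF-kB-driven SEAP reporter), 20,000/well, added after 30 min pre-incubation of compound (0.004–25 μM final) with TNFα 0.5 ng/mL final at 37 °C; 18 h incubation. SEAP read with QUANTI-Blue at 620 nm; IC50 from 4-parameter logistic fit, normalized to unstimulated and stimulated DMSO controls.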

[1] = read-out: TNF induced HEK-Blue assay IC50 value
[2] = TNF induced HEK-Blue assay IC50 value

Chain of TNFα (P01375 77-233 limits assumed): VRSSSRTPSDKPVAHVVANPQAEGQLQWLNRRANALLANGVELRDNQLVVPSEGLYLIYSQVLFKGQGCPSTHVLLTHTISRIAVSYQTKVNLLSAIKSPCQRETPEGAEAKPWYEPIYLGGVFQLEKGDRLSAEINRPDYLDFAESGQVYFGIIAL

| Compound | IC50 [1] | IC50 [2] |
| --- | --- | --- |
| C[C@@H](Nc1c(Cl)cnc2ccc(-c3cnc(N4CCN(Cc5nn[nH]n5)CC4)nc3)cc12)c1ccccc1F [Example 237, (R)-6-(2-(4-((2H-tetrazol-5-yl)methyl)piperazin-1-yl)pyrimidin-5-yl)-3-chloro-N-(1-(2-fluorophenyl)ethyl)quinolin-4-amine] | < 1000 nM |  |
| Cc1cnc2ccc(-c3cnc(C(C)(C)O)nc3)cc2c1N[C@H](C)c1ccccc1F [Example 240, (R)-2-(5-(4-((1-(2-fluorophenyl)ethyl)amino)-3-methylquinolin-6-yl)pyrimidin-2-yl)propan-2-ol] | < 1000 nM |  |
| CC(Nc1c(Cl)cnc2cc(F)c(-c3cnc(C(C)(C)O)nc3)cc12)c1ccccc1F (stereo not shown) [Example 248, 2-(5-(3-chloro-7-fluoro-4-((1-(2-fluorophenyl)ethyl)amino)quinolin-6-yl)pyrimidin-2-yl)propan-2-ol] |  | 10000 to 25000 nM |
| CC(Nc1c(Cl)cnc2cc(F)c(-c3cnc(C(C)(C)O)nc3)cc12)c1ccccc1F (stereo not shown) [Example 249, 2-(5-(3-chloro-7-fluoro-4-((1-(2-fluorophenyl)ethyl)amino)quinolin-6-yl)pyrimidin-2-yl)propan-2-ol] |  | 1000 to 10000 nM |
| CC(Nc1c(Cl)cnc2cc(F)c(-c3cnc(C(C)(C)O)nc3)cc12)c1ccccc1F (stereo not shown) [Example 250, 2-(5-(3-chloro-7-fluoro-4-((1-(2-fluorophenyl)ethyl)amino)quinolin-6-yl)pyrimidin-2-yl)propan-2-ol] |  | 1000 to 10000 nM |
| CC(Nc1c(Cl)cnc2cc(F)c(-c3cnc(C(C)(C)O)nc3)cc12)c1ccccc1F (stereo not shown) [Example 252, 2-(5-(3-chloro-7-fluoro-4-((1-(2-fluorophenyl)ethyl)amino)quinolin-6-yl)pyrimidin-2-yl)propan-2-ol] |  | < 1000 nM |
| CC(Nc1c(Cl)cnc2cc(F)c(-c3cnc(C(C)(O)CO)nc3)cc12)c1ccccc1F (stereo not shown) [Example 254, 2-(5-(3-chloro-7-fluoro-4-((1-(2-fluorophenyl)ethyl)amino)quinolin-6-yl)pyrimidin-2-yl)propane-1,2-diol] | < 1000 nM |  |
| CC(Nc1c(Cl)cnc2cc(F)c(-c3cnc(C#N)nc3)cc12)c1ccccc1F (stereo not shown) [Example 255, 5-(3-chloro-7-fluoro-4-((1-(2-fluorophenyl)ethyl)amino)quinolin-6-yl)pyrimidine-2-carbonitrile] | 1000 to 10000 nM |  |
| CC(Nc1c(Cl)cnc2cc(F)c(-c3ccc(C(O)CO)cc3)cc12)c1ccccc1F (stereo not shown) [Example 256, 1-(4-(3-chloro-7-fluoro-4-((1-(2-fluorophenyl)ethyl)amino)quinolin-6-yl)phenyl)ethane-1,2-diol] | < 1000 nM |  |
| CC(Nc1c(Cl)cnc2cc(F)c(-c3cnc(C(C)(O)CO)nc3)cc12)c1ccccc1F (stereo not shown) [Example 257, 2-(5-(3-chloro-7-fluoro-4-((1-(2-fluorophenyl)ethyl)amino)quinolin-6-yl)pyrimidin-2-yl)propane-1,2-diol] | < 1000 nM |  |
| CC(Nc1c(Cl)cnc2cc(F)c(-c3ccc(C(C)(C)O)c(F)c3)cc12)c1ccccc1F (stereo not shown) [Example 258, 2-(4-(3-chloro-7-fluoro-4-((1-(2-fluorophenyl)ethyl)amino)quinolin-6-yl)-2-fluorophenyl)propan-2-ol] | 1000 to 10000 nM |  |
| CC(Nc1c(Cl)cnc2cc(F)c(-c3cnc(C(C)(O)CO)nc3)cc12)c1ccccc1F (stereo not shown) [Example 259, 2-(5-(3-chloro-7-fluoro-4-((1-(2-fluorophenyl)ethyl)amino)quinolin-6-yl)pyrimidin-2-yl)propane-1,2-diol] | 10000 to 25000 nM |  |

Continued, values first:

| IC50 [1] | IC50 [2] | Compound |
| --- | --- | --- |
| < 1000 nM |  | CC(Nc1c(Cl)cnc2cc(F)c(-c3ccc(C(O)C4CC4)cc3)cc12)c1ccccc1F (stereo not shown) [Example 260, (4-(3-chloro-7-fluoro-4-((1-(2-fluorophenyl)ethyl)amino)quinolin-6-yl)phenyl)(cyclopropyl)methanol] |
| < 1000 nM |  | CC(Nc1c(Cl)cnc2cc(F)c(-c3ccc(C(O)C4CC4)cc3)cc12)c1ccccc1F (stereo not shown) [Example 261, (4-(3-chloro-7-fluoro-4-((1-(2-fluorophenyl)ethyl)amino)quinolin-6-yl)phenyl)(cyclopropyl) methanol] |
| 1000 to 10000 nM |  | CC(Nc1c(Cl)cnc2cc(F)c(-c3ccc(C(O)C4CC4)cc3)cc12)c1ccccc1F (stereo not shown) [Example 262, (4-(3-chloro-7-fluoro-4-((1-(2-fluorophenyl)ethyl)amino)quinolin-6-yl)phenyl)(cyclopropyl)methanol] |
| 1000 to 10000 nM |  | CC(Nc1c(Cl)cnc2cc(F)c(-c3ccc(C(O)C4CC4)cc3)cc12)c1ccccc1F (stereo not shown) [Example 263, (4-(3-chloro-7-fluoro-4-((1-(2-fluorophenyl)ethyl)amino)quinolin-6-yl)phenyl)(cyclopropyl)methanol] |
| < 1000 nM |  | CC(Nc1c(Cl)cnc2cc(F)c(-c3ccc(C4(CO)CC4)cc3)cc12)c1ccccc1F (stereo not shown) [Example 265, (1-(4-(3-chloro-7-fluoro-4-((1-(2-fluorophenyl)ethyl)amino)quinolin-6-yl)phenyl)cyclopropyl) methanol] |
| < 1000 nM |  | CC(Nc1c(Cl)cnc2cc(F)c(-c3cc(F)c(C(C)(C)O)c(F)c3)cc12)c1ccccc1F (stereo not shown) [Example 268, 2-(4-(3-chloro-7-fluoro-4-((1-(2-fluorophenyl)ethyl)amino)quinolin-6-yl)-2,6-difluorophenyl) propan-2-ol] |
| < 1000 nM |  | CC(C)(O)c1ncc(-c2cc3c(N[C@@H](c4ccccc4F)C(F)F)c(Cl)cnc3cc2F)cn1 [Example 269, (S)-2-(5-(3-chloro-4-((2,2-difluoro-1-(2-fluorophenyl)ethyl)amino)-7-fluoroquinolin-6-yl)pyrimidin-2-yl)propan-2-ol] |
| < 1000 nM |  | CC(C)(O)c1ccc(-c2cc3c(N[C@@H](c4ccccc4F)C(F)F)c(Cl)cnc3cc2F)cn1 [Example 270, (S)-2-(5-(3-chloro-4-((2,2-difluoro-1-(2-fluorophenyl)ethyl)amino)-7-fluoroquinolin-6-yl)pyridin-2-yl)propan-2-ol] |
| < 1000 nM |  | CC(Nc1c(Cl)cnc2cc(F)c(-c3ccc(C(O)CN4CCOCC4)cc3)cc12)c1ccccc1F (stereo not shown) [Example 272, 1-(4-(3-chloro-7-fluoro-4-((1-(2-fluorophenyl)ethyl)amino)quinolin-6-yl)phenyl)-2-morpholinoethan-1-ol] |
| < 1000 nM |  | CC(Nc1c(Cl)cnc2cc(F)c(-c3cnc(C(O)CN4CCOCC4)cn3)cc12)c1ccccc1F (stereo not shown) [Example 273, 1-(5-(3-chloro-7-fluoro-4-((1-(2-fluorophenyl)ethyl)amino)quinolin-6-yl)pyrazin-2-yl)-2-morpholinoethan-1-ol] |
| 1000 to 10000 nM |  | CC(Nc1c(Cl)cnc2cc(F)c(-c3cnc(C(O)CN4CCOCC4)cn3)cc12)c1ccccc1F (stereo not shown) [Example 274, 1-(5-(3-chloro-7-fluoro-4-((1-(2-fluorophenyl)ethyl)amino)quinolin-6-yl)pyrazin-2-yl)-2-morpholinoethan-1-ol] |
| < 1000 nM |  | CC(Nc1c(Cl)cnc2cc(F)c(-c3cnc(C(O)CN4CCOCC4)cn3)cc12)c1ccccc1F (stereo not shown) [Example 275, 1-(5-(3-chloro-7-fluoro-4-((1-(2-fluorophenyl)ethyl)amino)quinolin-6-yl)pyrazin-2-yl)-2-morpholinoethan-1-ol] |
| 1000 to 10000 nM |  | CC(Nc1c(Cl)cnc2cc(F)c(-c3cnc(C(O)CN4CCOCC4)cn3)cc12)c1ccccc1F (stereo not shown) [Example 276, 1-(5-(3-chloro-7-fluoro-4-((1-(2-fluorophenyl)ethyl)amino)quinolin-6-yl)pyrazin-2-yl)-2-morpholinoethan-1-ol] |
